Results on eight molecules are retold here after PubChem BioAssay (NCI).

Test systems include HOP-92 NSCLC; COLO 205 colon; OVCAR-3 ovarian; NCI-H23 lung; DU-145 prostate; SK-MEL-28 melanoma; ACHN renal; NCI-H522 lung; OVCAR-5 ovarian; CAKI-1 renal.
Holding throughout (assay): inhibition of tumour cell growth, NCI panel, 48 h

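The compound was tested at five concentrations on cells cultured in 96-well plates, with a 48-hour exposure period. The concentration for 50% growth inhibition is given as GI50. TGI: concentration producing complete growth inhibition.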 Bounds are passed on as bounds.

With `CN1CCC(COc2cnc(-c3cccc(Cn4nc(-c5cccc(C#N)c5)ccc4=O)c3)nc2)CC1`, the GI50 was 1020 nM with HOP-92 NSCLC; 1920 nM in the test with COLO 205 colon; 2450 nM in the test on OVCAR-3 ovarian; 4930 nM with NCI-H23 lung; 4760 nM in the test on DU-145 prostate; 1820 nM with SK-MEL-28 melanoma. Besides, the GI50 in the test on ACHN renal is 2380 nM; with NCI-H522 lung, 2270 nM; in the test on OVCAR-5 ovarian, 7690 nM; in the test on CAKI-1 renal it was 3150 nM. In addition, the TGI in the test on HOP-92 NSCLC worked out at 12600 nM; with COLO 205 colon, 3680 nM; in the test with OVCAR-3 ovarian, 6060 nM; in the test with NCI-H23 lung, 21600 nM; in the test with DU-145 prostate, 30500 nM; with SK-MEL-28 melanoma it was 3520 nM. In addition, the TGI with ACHN renal worked out at 5780 nM; with NCI-H522 lung, 5060 nM; in the test on OVCAR-5 ovarian, 27500 nM; in the test on CAKI-1 renal, 13800 nM.

As for `OC(c1cc(-c2cccc(Cl)c2)nc2ccccc12)C1CCCCN1` (centres undefined), the GI50 in the test with HOP-92 NSCLC is 1120 nM; in the test on COLO 205 colon, 1980 nM; in the test on OVCAR-3 ovarian, 1810 nM; in the test with NCI-H23 lung, 2010 nM; in the test with DU-145 prostate it was 1760 nM; in the test with SK-MEL-28 melanoma, 1810 nM. Also, the GI50 in the test on ACHN renal is 1640 nM; with NCI-H522 lung, 1970 nM; in the test on OVCAR-5 ovarian it was 1620 nM; with CAKI-1 renal, 1240 nM. Moreover, the TGI with HOP-92 NSCLC was determined as 2510 nM; with COLO 205 colon, 3700 nM; with OVCAR-3 ovarian, 3210 nM; in the test with NCI-H23 lung, 4200 nM; with DU-145 prostate it was 3150 nM; in the test with SK-MEL-28 melanoma, 3420 nM. Further, the TGI in the test with ACHN renal was determined as 3130 nM; in the test on NCI-H522 lung, 3660 nM; in the test on OVCAR-5 ovarian it was 3290 nM; with CAKI-1 renal it was 2720 nM.

As for `NS(=O)(=O)OCC1OC(n2cnc3cncnc32)C(O)C1O` (centres undefined), the GI50 in the test with HOP-92 NSCLC was 18.3 nM; in the test with COLO 205 colon, 29.1 nM; with OVCAR-3 ovarian, 35 nM; with NCI-H23 lung it was 17.5 nM; in the test with DU-145 prostate, 17.8 nM; in the test on SK-MEL-28 melanoma, 39 nM. In addition, the GI50 with ACHN renal was 28.8 nM; in the test on NCI-H522 lung, under 10 nM; with OVCAR-5 ovarian, under 11.4 nM; in the test with CAKI-1 renal, 18.1 nM. Moreover, the TGI with HOP-92 NSCLC was 61.9 nM; in the test on COLO 205 colon, 84.7 nM; in the test with OVCAR-3 ovarian it was 297 nM; in the test on NCI-H23 lung, 52.5 nM; in the test with DU-145 prostate, 132 nM; in the test with SK-MEL-28 melanoma, 185 nM. Moreover, the TGI with ACHN renal turned out to be 94.5 nM; in the test on NCI-H522 lung, 23.2 nM; in the test on OVCAR-5 ovarian, 74.7 nM; with CAKI-1 renal it was 46.3 nM.

On to `CC(C)N1CC2CN(Cc3ccccc3)CC(C1)C2=O`, for which the TGI in the test with HOP-92 NSCLC, in the test with COLO 205 colon, with OVCAR-3 ovarian, in the test on NCI-H23 lung, with DU-145 prostate and in the test on SK-MEL-28 melanoma was over 100000 nM each time. The TGI with ACHN renal, in the test on NCI-H522 lung, with OVCAR-5 ovarian and with CAKI-1 renal was over 100000 nM each time.

Regarding `COC1C(CO)OC(n2c3ccccc3c3c4c(c5c6ccccc6[nH]c5c32)C(=O)NC4=O)C(O)C1O` (centres undefined), the GI50 is 79.2 nM with HOP-92 NSCLC; under 36 nM in the test with COLO 205 colon; 78.5 nM in the test with OVCAR-3 ovarian; 95.1 nM in the test with NCI-H23 lung; 43.9 nM with DU-145 prostate; 156 nM with SK-MEL-28 melanoma. Moreover, the GI50 with ACHN renal was under 19.1 nM; in the test on NCI-H522 lung it was under 10 nM; in the test on OVCAR-5 ovarian, 270 nM; in the test with CAKI-1 renal it was under 18.4 nM. For the same molecule, the TGI in the test with HOP-92 NSCLC worked out at 1220 nM; with COLO 205 colon, 2140 nM; in the test with OVCAR-3 ovarian, 369 nM; with NCI-H23 lung, 1120 nM; with DU-145 prostate it was 572 nM; in the test with SK-MEL-28 melanoma, 8490 nM. Also, the TGI with ACHN renal amounted to 92.8 nM; with NCI-H522 lung, 153 nM; with OVCAR-5 ovarian, 2240 nM; in the test with CAKI-1 renal it was 93.7 nM.

As for `CN(C)c1ccc(/C=C/c2ccnc3c(O)cccc23)cc1`, the GI50 was 211 nM in the test with HOP-92 NSCLC; 18500 nM in the test on COLO 205 colon; 462 nM with OVCAR-3 ovarian; 511 nM with NCI-H23 lung; 626 nM in the test on DU-145 prostate; 624 nM with SK-MEL-28 melanoma. Moreover, the GI50 is 337 nM in the test with ACHN renal, 257 nM with NCI-H522 lung, 6660 nM in the test with OVCAR-5 ovarian and 401 nM in the test on CAKI-1 renal. In addition, the TGI in the test on COLO 205 colon, with OVCAR-3 ovarian, in the test with NCI-H23 lung, in the test with DU-145 prostate, with SK-MEL-28 melanoma and in the test on ACHN renal was over 100000 nM throughout. In addition, the TGI in the test on NCI-H522 lung was 1720 nM; in the test with OVCAR-5 ovarian, over 100000 nM; in the test on CAKI-1 renal, over 74400 nM.

On to `Nc1c(C(=O)c2ccc(-c3cccnc3)cc2)cnn1-c1ccc(F)cc1`, for which the GI50 was over 25000 nM with HOP-92 NSCLC; over 21900 nM in the test with COLO 205 colon; over 22800 nM in the test with OVCAR-3 ovarian; over 22700 nM with NCI-H23 lung; over 25000 nM in the test on DU-145 prostate; over 17400 nM in the test with SK-MEL-28 melanoma. Also, the GI50 in the test on ACHN renal was over 10900 nM; in the test on NCI-H522 lung, over 12700 nM; in the test with OVCAR-5 ovarian, over 25000 nM; with CAKI-1 renal, over 25000 nM. For the same molecule, the TGI with HOP-92 NSCLC, in the test with COLO 205 colon, in the test on OVCAR-3 ovarian, in the test with NCI-H23 lung, with DU-145 prostate and with SK-MEL-28 melanoma was over 25000 nM throughout. Moreover, the TGI in the test on ACHN renal is over 16000 nM; with NCI-H522 lung it was over 23100 nM; in the test on OVCAR-5 ovarian, over 25000 nM; in the test on CAKI-1 renal, over 25000 nM.

In the case of `C[C@]12CC[C@@H]3c4cc(OC(F)F)c(O)cc4CC[C@H]3[C@@H]1CC[C@@H]2OS(N)(=O)=O`, the GI50 is 6840 nM in the test with HOP-92 NSCLC; 1100 nM in the test on COLO 205 colon; 365 nM with OVCAR-3 ovarian; 1460 nM in the test with NCI-H23 lung; 1550 nM with DU-145 prostate; 10500 nM in the test with SK-MEL-28 melanoma. Besides, the GI50 is 735 nM with ACHN renal, 324 nM with NCI-H522 lung, 3510 nM in the test with OVCAR-5 ovarian and 548 nM in the test on CAKI-1 renal. The TGI is 79200 nM in the test with HOP-92 NSCLC; over 40000 nM in the test with COLO 205 colon; 16600 nM in the test on OVCAR-3 ovarian; 50800 nM with NCI-H23 lung; over 100000 nM with DU-145 prostate; 78200 nM with SK-MEL-28 melanoma. Also, the TGI in the test with ACHN renal is over 100000 nM; with NCI-H522 lung, 18400 nM; with OVCAR-5 ovarian it was over 100000 nM; in the test with CAKI-1 renal it was over 70200 nM.
